This is an account of results in patent publication US8501740B2, “Methods of treatment of opioid tolerance, physical dependence, pain and addiction with inhibitors of certain growth factor receptors” (priority 2007, dated 2013).

Entries after “also recorded” stand apart in the source; their conditions may differ.

The subject of one test is rat. In words: Tail-flick latency (TFL) test of morphine analgesia and tolerance. In kind it is in vivo. To be noted: for Analgesic effect of the drug itself: administered alone, without morphine; for Development versus behavioral expression of morphine tolerance (tail flick latency): co-administered with morphine for several days, then morphine alone on the final day; for Reversal of established morphine tolerance: morphine given for varying periods, then drug added; for Effect on analgesic effect of morphine given subsequently: drug in 10% cyclodextrin vehicle for 4 days, morphine alone on day 5. The protocol:
Analgesic effectiveness is typically studied using the tail-flick test, where a hot light is shined on a rat's tail and the time required for the rat to move (“flick”) its tail recorded (TFL, or tail flick latency).
To determine whether GLEEVEC® (imatinib) blocked the development or expression of tolerance, morphine and GLEEVEC® (imatinib) was co-administered for 4 days, and then on day 5 morphine alone was administered.
To determine whether IRESSA® (gefitinib) blocked the development or expression of tolerance, morphine and IRESSA® (gefitinib) was co-administered for 4 days, and then on day 5 morphine alone was administered.
A drug can inhibit the expression of narcotic tolerance if it is analgesic itself or if previous drug administration alters subsequent narcotic analgesia. To determine whether either of these possibilities were the case, animals were treated animals with either the cyclodextrin-based vehicle used to solubilize GLEEVEC® (imatinib) (10% CDSBE) or GLEEVEC® (imatinib) in vehicle for 4 days, and then on the fifth day were given morphine alone.
A drug can inhibit the expression of narcotic tolerance if it is analgesic itself or if previous drug administration altered narcotic analgesia. To determine whether either of these possibilities were the case, animals were treated animals with either the cyclodextrin-based vehicle used to solubilize IRESSA® (gefitinib) (10% CAPTISOL® (sulfobutylether-β-cyclodextrin)) or IRESSA® (gefitinib) in vehicle for 4 days, and then on the fifth day were given morphine alone.
Another possible explanation for apparent inhibition of opioid tolerance would be that GLEEVEC® (imatinib) or IRESSA® (gefitinib) could alter morphine pharmacokinetics, causing a different time course of analgesia with co-administration.
Next it was desirable to determine if GLEEVEC® (imatinib) could reverse morphine tolerance. NMDA antagonists, which are known to inhibit the development of morphine tolerance, can only partially reverse morphine tolerance, and cannot reverse established tolerance. In addition, NMDA antagonists are highly toxic (many are chemically related to PCP), which also severely limits their clinical use. To determine whether GLEEVEC® (imatinib) could reverse established morphine tolerance, morphine was given for varying periods of time, and then GLEEVEC® (imatinib) was added. […] On day 7, morphine alone was given to all groups.
Background: Hot-plate and tail-flick tests time the reaction to a heat stimulus.

Test [1] relates to rats that have undergone sciatic nerve ligation. As to the kind of experiment: Sciatic nerve ligation model of neuropathic pain, Von Frey hair testing. The conditions noted are these: for Effect upon allodynia / analgesia (Von Frey hairs): sciatic nerve ligation, alone or co-administered as labelled. In kind it is in vivo. An excerpt: To test the methods of treatment presented herein, we use the sciatic nerve ligation model of Chung et al. (model of neuropathic pain). Chung, J. M., H. K. Kim, and K. Chung, Segmental Spinal Nerve Ligation Model Of Neuropathic Pain, Methods Mol Med, 2004. 99: p. 35-45. Animals undergo this ligation procedure, are allowed to recover, and tested for pain sensitivity using Von Frey hairs and/or pressure testing.
To test the methods of treatment presented herein, we use the sciatic nerve ligation model of Chung et al. (model of neuropathic pain). Chung, J. M., H. K. Kim, and K. Chung, Segmental spinal nerve ligation model of neuropathic pain. Methods Mol Med, 2004. 99: p. 35-45. Animals undergo this ligation procedure, are allowed to recover, and tested for pain sensitivity using Von Frey hairs and/or pressure testing.

For another test, the system named is PDGFR-beta. As to the kind of experiment: PDGFR-beta tyrosine phosphorylation in cell lines (immunoprecipitation, Western blotting with PY-20). In kind it is cell-based. The protocol:
Cells were treated with morphine, gabapentin, morphine and gabapentin, or water for 40 minutes. Cells were then washed, lysed, and immunoprecipitation was performed using a PDGFR-beta antibody. Western blotting was then performed using PY-20 antibody, which detects tyrosine phosphorylation. Blots were then stripped and re-probed with PDGFR-beta antibody to control for the amount of PDGFR-beta loaded in each lane.

For test [2], the system named is alcohol dependent animals. To be noted: cited from earlier work.
In test [3] the test system is animals made physically dependent upon morphine. As to the kind of experiment: Morphine physical dependence, naloxone-precipitated withdrawal. In kind it is in vivo. The conditions noted are these: morphine pellets, drug systemically twice daily. An excerpt: Animals were pelleted with continuous release morphine pellets, and treated with GLEEVEC® (imatinib) systemically twice daily. Withdrawal was precipitated by injection of naloxone.

A further test relates to PDGF receptor. To be noted: cited from earlier work.

For the compound `NCC1(CC(=O)O)CCCCC1` [gabapentin], in the test with rat, the “Analgesic effect of the drug itself” value is on record as “not analgesic itself”, the “Inhibition of tolerance when co-administered with morphine from the beginning” value is “blocks tolerance”, the “Development versus behavioral expression of morphine tolerance (tail flick latency)” value (from here on “Development versus behavioral expression”) is “blocks the behavioral expression of tolerance” and the “Reversal of established morphine tolerance” value is reported as “reverses established tolerance”. The “Doses required to block behavioral expression of tolerance, relative to GLEEVEC (imatinib)” value in the test with rat (rat, in vivo) was 10 to 100 fold higher. For the same compound, the “Number of doses to achieve peak effect” value in test [1] (sciatic nerve ligation model) is reported as “takes several doses to achieve its peak effect”. In test [1], the “Effect upon allodynia / analgesia (Von Frey hairs)” value (shortened to “Effect upon allodynia / analgesia”) is recorded as “does not cause complete analgesia”. Further, the “Block of morphine-induced PDGFR-beta phosphorylation / PDGFR activation” value with PDGFR-beta (co-administration with morphine, 40 minutes) is on record as “blocked by co-administration of gabapentin”. In addition, the “Alcohol intake and self-administration” value in test [2] (alcohol dependent animals) was “reduce alcohol intake and self-administration”. The “Anxiogenic effects of alcohol withdrawal” value in test [2] (alcohol dependent rats) is given as “reversing anxiogenic effects of alcohol withdrawal”.

In the case of `COc1cc2ncnc(Nc3ccc(F)c(Cl)c3)c2cc1OCCCN1CCOCC1` [IRESSA® (gefitinib), gefitinib], in the test on rat, the “Analgesic effect of the drug itself” value was “do not exhibit analgesic effects; also recorded: neither IRESSA® (gefitinib) nor vehicle was analgesic when administered alone”; the “Development versus behavioral expression” value was “inhibits the development, not the behavioral expression of opioid tolerance; also recorded: inhibited the development of morphine tolerance”; the “Effect on analgesic effect of morphine given subsequently” value was “do not exhibit analgesic effects, or interfere with the analgesic effects of morphine; also recorded: did not alter the analgesic effect of morphine given on day 5”. Further, the “Effect upon allodynia / analgesia” value in test [1] is on record as “neither morphine nor IRESSA® (gefitinib) alone have analgesic properties; also recorded: had no effect upon allodynia”.

With `Cc1ccc(NC(=O)c2ccc(CN3CCN(C)CC3)cc2)cc1Nc1nccc(-c2cccnc2)n1` [GLEEVEC® (imatinib), imatinib], in the test on rat, the “Analgesic effect of the drug itself” value is reported as “do not exhibit analgesic effects; also recorded: neither GLEEVEC® (imatinib) nor vehicle was analgesic when administered alone; also recorded: no analgesic effect at any time point”; the “Inhibition of tolerance when co-administered with morphine from the beginning” value is reported as “inhibited tolerance”; the “Development versus behavioral expression” value is “inhibits the behavioral expression, not the development of opioid tolerance; also recorded: blocked the behavioral expression of morphine tolerance; also recorded: inhibited the expression of tolerance alone”; the “Effect on analgesic effect of morphine given subsequently” value was “do not exhibit analgesic effects, or interfere with the analgesic effects of morphine; also recorded: did not alter the analgesic effect of morphine given subsequently on day 5”. Besides, the “Reversal of established morphine tolerance” value in the test on rat is “completely reverses and inhibits the behavioral expression of tolerance; also recorded: completely reversed tolerance”. In the test with rat (spinally administered, initial studies), the “Inhibition of morphine tolerance” value is reported as “inhibited morphine tolerance”. Moreover, the “Effect upon allodynia / analgesia” value in test [1] is recorded as “neither morphine nor GLEEVEC® (imatinib) alone have analgesic properties; also recorded: had no effect upon allodynia”. Moreover, in test [3], the “Weight loss in precipitated withdrawal” value was “without affecting weight loss; also recorded: Weight loss was not affected”; the “Withdrawal behaviors in precipitated withdrawal” value is “reduces the behavioral expression of paw shakes and wet dog shakes; also recorded: withdrawal behaviors such as teeth chattering and wet dog shakes were reduced”. Also, the “Inhibition of receptor tyrosine kinase activity of the PDGF receptor” value in the test on PDGF receptor is reported as “inhibit the receptor tyrosine kinase activity of the PDGF receptor”.

With `CN1CC[C@]23c4c5ccc(O)c4O[C@H]2[C@@H](O)C=C[C@H]3[C@H]1C5` [morphine], the “Time of peak analgesic effect” value with rat (time course on 4 consecutive days) is 30 min. Also, the “Effect upon allodynia / analgesia” value in test [1] was “neither morphine nor IRESSA® (gefitinib) alone have analgesic properties; also recorded: neither morphine nor GLEEVEC® (imatinib) alone have analgesic properties; also recorded: had no effect upon allodynia”. The “Increase in PDGFR-beta phosphorylation” value in the test with PDGFR-beta (cells treated for 40 minutes) worked out at 40%.
